# Like-named read-outs stand apart in the source and are kept apart here.
# How the values were obtained:
# [1] = Hepatic microsome stability, mouse; assay type: in vitro ADME; settings: mouse liver microsomes
# Method: (§1) Hepatic microsomal stability assays were performed in two stages. In the first set of experiments, aliquots of the DMSO solute stocks were diluted into ACN and then into assay buffer (PBS, pH 7.4, ±0.05% PS80). Final experimental solute concentrations were 1 μM (0.6% ACN, 0.01% DMSO). Commercially available mouse, rat, or human hepatic microsomes (˜0.5 mg/ml final concentration), and NADPH (1 mM) or PBS were added. The resulting mixture was incubated at 37° C., and aliquots removed at 0, 1, 10, 30 and 60 min, then quenched with ACN containing 2 μM carbamazepine (internal standard). […] Duplicate incubations were run for each time-point. The percentage of solute remaining at the end of the incubation was used to determine solute half-life.
# (§2) These were diluted 500-fold into 1 mL of microsomal incubation mixture to yield a final concentration of 1 μM. The incubation mixture was composed of 100 mM phosphate buffer, pH 7.4, and NADPH regenerating system (BD Biosciences NADPH Regenerating System Solutions A & B). This mixture was preincubated at 37° C. for 5 min in an Eppendorf Thermo mixer, and the reaction initiated by addition of 0.5 mg (25 μl of a 20 mg/mL solution) of liver microsomes. Aliquots (100 μl) were withdrawn at 0, 5, 15, 30, and 60 min, and added to 100 μl ACN containing internal standard. […] The percentage of solute remaining at the end of the incubation was used to determine species-specific values of scaled intrinsic clearance, hepatic clearance, and predicted hepatic extraction based upon the calculations below {Obach, 1999 #9097}.
# (§3) for which mg microsomal protein/gm liver was 45 for all species, and gm liver/kg body weight were 32 for dog, 88 for mouse, 40 for rat and 25 for human.
# (§4) Clh=(Q*Clint,scaled)/(Q+Clint,scaled)
# (§5) for which Q was hepatic blood flow; values of 90 ml/min/kg for mouse, 66 ml/min/kg for rat, and 21 ml/min/kg for human were used.
# (§6) for which ER estimates the amount of compound cleared during a single pass through the liver (Low ER<0.3, moderate ER 0.3-0.7, high ER>0.7).
# [2] = Hepatic microsomal stability, rat; settings: for half-life at 1 μM: Sprague-Dawley, pH 7.4
# [3] = Hepatic microsomal stability, mouse; settings: for half-life at 1 μM: CD-1, mouse, pH 7.4
# [4] = Hepatic microsomal stability, human; settings: for half-life at 1 μM: pH 7.4
# [5] = Hepatic microsome stability, human; assay type: in vitro ADME; settings: human liver microsomes
# Method: as §1, §2, §3, §4, §5, §6
# [6] = Multiple-dose (three-day) pharmacokinetic studies in FVB mice, drug in liquid diet; assay type: in vivo, mouse; settings: for concentration at 3 days: FVB, mouse, oral
# Method: Aminothiazole analog (e.g., 4.5 g of 27) was added to 15 mL of pure PEG400, vortexed and sonicated to ensure dissolution, then stored at −4° C. until needed. This highly concentrated PEG400 solution was subsequently diluted to final dosing concentrations, where the volume added was composed of homogenized solid rodent feed, cocoa (taste masking agent), and water. Wild-type FVB mice weigh ˜25 gm and typically drink 20 mL of liquid diet per day, allowing an estimate of daily drug consumption. A single dosing cohort consisted of three mice in a shared cage and liquid diet was provided at the start of the study in sufficient volume to last for the entire three-day trial (˜200 mL). At the end of the three-day dosing period, animals were euthanized by CO2, followed by collection of plasma (cardiac puncture) and removal of whole brain. Heparinized blood was centrifuged to separate plasma and both plasma and brain samples were stored at −80° C. prior to analysis. Plasma samples were prepared for analysis by precipitating proteins and reconstituting the remaining fraction with HPLC mobile phase. Brain samples were typically prepared by four-fold dilution with water after weighing, then homogenized using bead-beater or Polytron™ resulting in a highly concentrated solution that was further diluted with mobile phase as appropriate in preparation for bioanalytical analysis using LC-MS. Analysis was by LC-MS (Shimadzu dual-HPLC pumps, C18 analytical column, with detection using an Applied Biosystems API-4000 triple quadrupole mass spectrometer).
# Ten compounds were selected from among the 34 2-AMTs for three-day multiple-dose PK studies at PO doses ranging from 40-210 mg/kg. Selection was based on diversity in potency, chemical structure, and a range of physicochemical properties. We used a liquid diet to facilitate easy drug administration, as well as serve as the daily source of all water and food. This approach was chosen because the mouse bioassay studies that would be used to assess drug effects on survival would be expected to run for 110 to 400 days, or more; gavage dosing for such a long period is not feasible and more stressful to mice. For the multiple-dose PK studies, 4.5 g of the 2-AMT analogs was added to 15 mL of pure PEG400, vortexed and sonicated to ensure dissolution, then stored at −4° C. until needed. This highly concentrated PEG400 solution was subsequently diluted to final dosing concentrations and added to the rodent liquid diet, cocoa (taste-masking agent), and water.
# Wild-type FVB mice weigh ˜25 g and typically drink 20 mL of liquid diet per day, allowing an estimate of daily drug consumption. A single dosing cohort consisted of three mice in a shared cage and liquid diet was provided at the start of the study in sufficient volume (˜200 mL) to last for the entire three-day period. At the end of the dosing period, animals were euthanized by CO2, followed by collection of plasma (cardiac puncture) and removal of whole brain. Samples were processed and stored as described above for the 10 mg/kg single-dose studies.
# Plasma and brain homogenate samples were extracted using a protein-precipitation method and analyzed by specific LC/MS/MS methods developed for each compound dosed in vivo. The analytical method accuracy and precision were monitored by analyzing quality control (QC) samples that were prepared by the same methods as the plasma or brain homogenate samples. The brain and plasma concentration data were used to calculate the maximal concentration (Cmax), area under the concentration-time curve (AUClast), and absolute bioavailability (% F) by noncompartmental analysis with sparse sampling performed using Phoenix WinNonlin 6.1 software (Pharsight, Mountain View, Calif.).
# [7] = Single-dose pharmacokinetics in FVB mice (oral gavage, IV)
# [8] = brain, 3 days in liquid diet, 40, 80, 130, 210 mg/kg/day, read-out: brain concentration
# [9] = plasma, 3 days in liquid diet, 40, 80, 130, 210 mg/kg/day, read-out: plasma concentration
# [10] = IV 1 mg/kg, plasma, female FVB mice
# [11] = female, FVB, mouse, brain, po, 40 mg/kg
# [12] = female, FVB, mouse, plasma, po, 40 mg/kg
smiles,measurement,setting,value
"Cc1ccc(Nc2nc(-c3cc(-c4ccccc4)no3)cs2)nc1 [IND33, (5-Methyl-pyridin-2-yl)-[4-(3-phenyl-isoxazol-5-yl)-thiazol-2-yl]-amine]",hepatic extraction ratio (ER),[1],lower to moderate
same,half-life at 1 μM,[2]; rat,> 60 min
same,"% remaining after a 60-min incubation, Rat",[2],73%
same,Hepatic Extraction Ratio Rat,[2]; rat microsomes,0.3
same,t1/2 Rat (extrapolated),[2]; rat microsomes,151* min
same,half-life at 1 μM,[3]; liver microsomes,99 min
same,half-life at 1 μM,[3]; mouse liver microsomes,> 60 min
same,"% remaining after a 60-min incubation, Mouse",[3]; mouse liver microsomes,111%
same,Hepatic Extraction Ratio Mouse,[3]; mouse microsomes,0.5
same,Hepatic Extraction Ratio Human,[4]; human,0.7
same,"% remaining after a 60-min incubation, Human",[4]; human liver microsomes,42%
same,Hepatic Extraction Ratio Human,[4]; human microsomes,0.7
same,half-life at 1 μM,"[4]; human, human liver microsomes",54 min
same,half-life at 1 μM,"[4]; human, liver microsomes",54 min
same,hepatic extraction ratio (ER),[5],lower to moderate
same,concentration at 3 days,"[6]; brain, 3 days in liquid diet, 130 mg/kg dose, read-out: brain concentration",~30 µM
"COc1ccc(-c2csc(Nc3ccc4ccccc4n3)n2)cc1OC [IND47, [4-(3,4-Dimethoxy-phenyl)-thiazol-2-yl]-quinolin-2-yl-amine]",hepatic extraction ratio (ER),[1],lower to moderate
same,half-life at 1 μM,[2]; rat,> 60 min
same,"% remaining after a 60-min incubation, Rat",[2],50%
same,Hepatic Extraction Ratio Rat,[2]; rat microsomes,0.5
same,t1/2 Rat (extrapolated),[2]; rat microsomes,69* min
same,half-life at 1 μM,[3]; liver microsomes,72 min
same,half-life at 1 μM,[3]; mouse liver microsomes,> 60 min
same,"% remaining after a 60-min incubation, Mouse",[3]; mouse liver microsomes,56%
same,Hepatic Extraction Ratio Mouse,[3]; mouse microsomes,0.6
same,"% remaining after a 60-min incubation, Human",[4]; human liver microsomes,113%
same,half-life at 1 μM,"[4]; human, human liver microsomes",> 60 min
same,half-life at 1 μM,"[4]; human, liver microsomes",> 60 min
same,hepatic extraction ratio (ER),[5],lower to moderate
same,concentration at 3 days,[6]; [8],≤ 1 µM
same,concentration at 3 days,[6]; [9],≤ 1 µM
"Cc1ccnc(Nc2nc(-c3ccncc3)cs2)c1 [IND52, (4-Methyl-pyridin-2-yl)-(4-pyridin-4-yl-thiazol-2-yl)-amine]",hepatic extraction ratio (ER),[1],higher
same,half-life at 1 μM,[2]; rat,16 min
same,"% remaining after a 60-min incubation, Rat",[2],8%
same,Hepatic Extraction Ratio Rat,[2]; rat,0.8
same,Hepatic Extraction Ratio Rat,[2]; rat microsomes,0.8
same,half-life at 1 μM,[3]; liver microsomes,6 min
same,half-life at 1 μM,[3]; mouse liver microsomes,6 min
same,Hepatic Extraction Ratio Mouse,[3]; mouse,0.95
same,"% remaining after a 60-min incubation, Mouse",[3]; mouse liver microsomes,0%
same,Hepatic Extraction Ratio Mouse,[3]; mouse microsomes,0.95
same,Hepatic Extraction Ratio Human,[4]; human,0.8
same,"% remaining after a 60-min incubation, Human",[4]; human liver microsomes,30%
same,Hepatic Extraction Ratio Human,[4]; human microsomes,0.8
same,half-life at 1 μM,"[4]; human, human liver microsomes",36 min
same,half-life at 1 μM,"[4]; human, liver microsomes",36 min
same,hepatic extraction ratio (ER),[5],higher
same,brain concentration,"[6]; 3 days in liquid diet, 40 mg/kg dose",no measurable brain concentrations
"c1ccc2cc(Nc3nc(-c4ccncc4)cs3)ncc2c1 [IND85, Isoquinolin-3-yl-(4-pyridin-4-yl-thiazol-2-yl)-amine]",hepatic extraction ratio (ER),[1],higher
same,half-life at 1 μM,[2]; rat,18 min
same,"% remaining after a 60-min incubation, Rat",[2],32%
same,Hepatic Extraction Ratio Rat,[2]; rat,0.8
same,Hepatic Extraction Ratio Rat,[2]; rat microsomes,0.8
same,half-life at 1 μM,[3]; liver microsomes,15 min
same,half-life at 1 μM,[3]; mouse liver microsomes,15 min
same,Hepatic Extraction Ratio Mouse,[3]; mouse,0.9
same,"% remaining after a 60-min incubation, Mouse",[3]; mouse liver microsomes,6%
same,Hepatic Extraction Ratio Mouse,[3]; mouse microsomes,0.9
same,Hepatic Extraction Ratio Human,[4]; human,0.7
same,"% remaining after a 60-min incubation, Human",[4]; human liver microsomes,66%
same,Hepatic Extraction Ratio Human,[4]; human microsomes,0.7
same,half-life at 1 μM,"[4]; human, human liver microsomes",53 min
same,half-life at 1 μM,"[4]; human, liver microsomes",53 min
same,hepatic extraction ratio (ER),[5],higher
same,concentration at 3 days,[6]; [8],≤ 1 µM
same,concentration at 3 days,[6]; [9],≤ 1 µM
same,"Brain Cmax/EC50 ratio, 40 mg/kg",[7]; single oral dose 40 mg/kg,better Cmax:EC50 ratio at either dose
"C(=N\Nc1ccc(-c2cnco2)cc1)/c1ccncc1 [IND54304, reference compound]",hepatic extraction ratio (ER),[1],moderate (moderate ER 0.3-0.7)
same,Hepatic Extraction Ratio Rat Female,[2]; female rat microsomes,0.27
same,Hepatic Extraction Ratio Rat Male,[2]; male rat microsomes,0.27
same,Hepatic Extraction Ratio Mouse Female,[3]; female mouse microsomes,0.64
same,half-life at 1 μM,"[3]; female, liver microsomes",34 min
same,Hepatic Extraction Ratio Mouse Male,[3]; male mouse microsomes,0.71
same,half-life at 1 μM,"[3]; male, liver microsomes",25 min
same,half-life at 1 μM,"[4]; both, human, liver microsomes",130 min
same,Hepatic Extraction Ratio Human,"[4]; human (mixed) microsomes, gender study",0.34
same,hepatic extraction ratio (ER),[5],low (Low ER<0.3)
same,brain concentration as multiple of EC50,"[6]; 3 days in liquid diet, 100 mg/kg/day",~20 ×EC50
same,concentration at 3 days,"[6]; brain, 3 days in liquid diet, 100 mg/kg/day, read-out: brain concentration",~10 µM
same,AUClast,[7]; [10],219 ± 33.0 ng·h/mL
same,Cmax,[7]; [10],466 ± 37.4 ng/mL
same,Tmax,[7]; [10],4.98 min
same,t1/2,[7]; [10],12.6 min
same,% F,"[7]; PO 40 mg/kg vs IV 1 mg/kg, plasma, female FVB mice",24.8%
same,AUClast,"[7]; PO 40 mg/kg, brain, female FVB mice",282 ± 27.2 ng·h/g
same,Cmax,[7]; [11],123 ± 42.7 ng/g
same,Tmax,[7]; [11],120 min
same,Kp,"[7]; female, FVB, mouse, brain/plasma, po, 40 mg/kg",0.52
same,AUC(0-t),[7]; [12],544 ± 16.8 ng·h/mL
same,Cmax,[7]; [12],220 ± 99.4 ng/mL
same,Tmax,[7]; [12],30 min
same,half-life,"[7]; female, FVB, mouse, plasma, po, 40 mg/kg, t1/2, PO 40 mg/kg, female FVB mice",60 min
